This is an account of results in US20220072014A1, “PHARMACEUTICAL COMPOSITION WHICH COMPRISES THE COMBINATION OF A SELECTIVE INHIBITOR OF CYCLOOXYGENASE 2 AND A CARBAMATE DERIVED FROM GUAIFENESIN FOR TREATING PAIN, INFLAMMATION AND MUSCULAR CONTRACTION” (priority 2018, published 2022).

Data set [1] relates to arthrosis and rheumatoid arthritis (RA) patients. As to conditions: patients without concomitant ASA; cited from earlier work.
Data set [2] can be described thus: weight gain of experimental animals. It counts as in vivo, rats. Particulars: celecoxib doses used for the chronic treatment DRC, alone or combined.
The conditions of data set [3]: FDA prescribing information; cited from earlier work.
In another data set the test system is rats (lethality). Kind of data set: preclinical toxicity (lethality) study after oral administration. Format: in vivo, male Wistar rats. The source says:
In order to determine the possible antinociceptive and toxic effects of the combination, male Wistar rats [Crl:(WI)fBR] with a weight of 180-200 g were used. All experimental procedures complied with the recommendations of the Committee for Research and Ethical Issues of the International Association for the Study of Pain (Covino et al., 1980) and the Guidelines on Ethical Standards for Investigations of Experimental Pain in Animals (Zimmermann 1983). The number of experimental animals was kept to a minimum (6 animals per experimental point for antinociceptive effects and 10 animals per experimental point for adverse effects:lethality). The rats were kept in a room with alternating light/darkness cycles. For twelve hours before the antinociception experiments rats fasted but had free access to water. All experiments were performed during the light phase of the light/darkness cycles.
The lethal toxic effects after single administrations were determined in 3 post-treatment timepoints, 24, 48 and 72 hours, in order to determine the corresponding DRC (death).

The subject of data set [4] is gout arthritis induced by intra-articular uric acid. Put plainly: pain-induced functional impairment in the rat model (PIFIR model), uric acid-induced gout arthritis. Format: in vivo, male Wistar rats. The protocol: All experiments were performed during the light phase of the light/darkness cycles.
For data set [5] the following is noted: oral route, cited from earlier work.

A word on the ED50: it is the midpoint of the dose-response relation. For the compound `Cc1ccc(-c2cc(C(F)(F)F)nn2-c2ccc(S(N)(=O)=O)cc2)cc1` [celecoxib, 4-[5-(4-methylphenyl)-3-(trifluoromethyl)-1H-pyrazol-1-yl]benzenesulfonamide], the GI bleeding incidence result in data set [1] is “lower GI bleeding incidence”. Besides, the “effect on normal weight gain” value in data set [2] is recorded as “does not modify the normal weight gain”. In data set [3], the estimated effective half-life was 8 to 12 h. For the same compound, the “dose at which the lethality DRC begins” value in the data set on rats (lethality) (24 hours) came to 17800 mg/kg. The “maximal effect (% FI)” value in data set [4] (2.5 h after oral administration, celecoxib 1,000 mg/Kg alone or with methocarbamol 50 mg/Kg) is recorded as 63.6±9.9%. The “effect four hours after being administered (% FI)” value in data set [4] (4 h after oral administration, celecoxib 1,000 mg/Kg alone or with methocarbamol 50 mg/Kg) was 62.5±7.0%. In addition, the ED50 in data set [4] (Rattus norvegicus, po, read-out: ED50 (antinociceptive dose-response curve)) was determined as 51.1 mg/kg. Moreover, in data set [4] (oral, acute administration, 4-hour assessment, most efficacious dose celecoxib 1,000 mg/Kg (combination with methocarbamol 50 mg/Kg)), the “peak antinociceptive effectiveness (AUC of temporal course, global antinociceptive effect)” value is on record as 191.9±27.2 area units (au).

As to `COc1ccccc1OCC(O)COC(N)=O` (stereo not drawn) [methocarbamol, 3-(2-methoxyphenoxy)-1,2-propanediol 1-carbamate], the “time to peak action” value in data set [5] (humans) was no more than 2 h. For the same compound, in data set [5], the “time to reach active levels” value was no more than 30 min. Besides, the “dose causing lethality effects within 24 hours” value in the data set with rats (lethality) was 1,000 mg/Kg. For the same compound, in data set [4] (methocarbamol 50 mg/Kg alone, oral, 4-hour assessment), the “antinociceptive effect during the assessment period” value is “did not produce any antinociceptive effect whatsoever”.
